Results published in PMC6629785, “Synthesis and Pharmacological Evaluation of a Novel Peptide Based on Anemonia sulcata BDS-I Toxin as a New KV3.4 Inhibitor Exerting a Neuroprotective Effect Against Amyloid-β Peptide” (Frontiers in Chemistry, 2019).
Ends that are not written are not given here.

Test system: NGF-differentiated PC-12 cells
Assay: Assessment of nuclear morphology with Hoechst-33258 after Aβ1−42 exposure
Assay type: cell-based, Rat
Details: peptide 100 nM pre-treatment; Aβ1−42 oligomers 5 μM, 24 h; Hoechst staining; 3 separate experiments, ~1,000 cells per group
Procedure: Rat pheochromocytoma cells (PC-12 cells) were grown as previously described (Pannaccione et al., [2005], [2007]). For all the experiments, cells were seeded at low density on glass cover-slips coated with poly-L-lysine (50 μg/ml). Differentiation of PC-12 cells was achieved by treatment with neuronal growth factor (NGF) 2.5 S (50 ng/ml) for 7–9 days (Greene and Tischler, [1976]). For electrophysiological experiments, cells were seeded on glass cover-slips and used after 7–9 days of NGF. […]
Nuclear morphology was evaluated by using the fluorescent DNA-binding dye Hoechst-33258 already described (Pannaccione et al., [2007]).
The peptide used in our study was synthesized by INBIOS (Pozzuoli, Naples, Italy) using the Aβ1−42 sequence of human APP [UniProtKB-P05067 (A4_HUMAN)]. The purity of the peptide was assessed by high-performance liquid chromatography (>95% pure) and the amino acid composition was verified by mass spectrometry. […] The pre-aggregated preparation of Aβ oligomers was analyzed in SDS-PAGE using the rabbit monoclonal anti-Aβ on precast gels 4-20%. […]
Figure 7 Effect of BDS-I[1-8] on Aβ1−42-induced abnormal nuclear morphology and caspase-3 activation in NGF-differentiated PC-12 cells. […] Values are expressed as mean±SEM of 3 independent experimental sessions. […]

| Substance | effect on abnormal nuclear morphology induced by Aβ1−42 exposure |
| --- | --- |
| AAPAFASG [BDS-I[1-8]] | able to significantly prevent |
| blood depressing substance-I [BDS-I] | able to significantly prevent |
